# Source: ChEMBL document CHEMBL1201862, “PubChem BioAssay data set” (2004)
# Activity calls are given as the source filed them.
# Legend:
# [1] = target: T1, Neuropeptide Y receptor type 2 (Homo sapiens, UniProt P49146); experiment: Fluorescence-based cell-based high-throughput dose response assay for agonists of NPY-Y2. [Related pubchem assays: 1703 (Screening assay (CNGC inhibitors).), 1359 (Screening assay (NPY-Y2 potentiators or agonists).), 1304 (Screening assay (NPY-Y1 potentiators or agonists).), 1710 (Screening assay (NPY-Y2 agonists).), 1791 (Summary AID.)]; assay type: functional
# T1 sequence (P49146 whole entry): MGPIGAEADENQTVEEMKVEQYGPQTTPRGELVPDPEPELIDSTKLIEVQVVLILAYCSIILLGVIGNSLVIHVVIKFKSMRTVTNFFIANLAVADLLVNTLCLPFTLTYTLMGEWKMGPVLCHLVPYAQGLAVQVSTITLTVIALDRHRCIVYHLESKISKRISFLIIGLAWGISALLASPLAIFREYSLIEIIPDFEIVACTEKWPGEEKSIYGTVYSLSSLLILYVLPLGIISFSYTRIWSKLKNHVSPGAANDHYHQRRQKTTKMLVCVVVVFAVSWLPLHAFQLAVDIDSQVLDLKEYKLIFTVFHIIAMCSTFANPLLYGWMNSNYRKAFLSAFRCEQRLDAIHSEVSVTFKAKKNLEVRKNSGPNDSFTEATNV
# HEK293 [2] = experiment: Fluorescence-based counterscreen for potentiators or agonists of NPY-Y2: cell-based high-throughput dose response assay to identify inhibitors of cyclic nucleotide gated ion channel (CNGC) activity. In this assay, the parental HEK293 cell line transfected with a cyclic-nucleotide gated ion channel (CNGC)-based cAMP sensor is used to measure inhibition of isoproterenol-induced CNGC activity by test compound.; assay type: functional; settings: Homo sapiens
# [3] = target: T2, Neuropeptide Y receptor type 1 (Homo sapiens, UniProt P25929); experiment: Fluorescence-based counterscreen for agonists of NPY-Y2: cell-based high-throughput dose response assay for agonists of NPY-Y1.; assay type: functional
# T2 sequence (P25929 whole entry): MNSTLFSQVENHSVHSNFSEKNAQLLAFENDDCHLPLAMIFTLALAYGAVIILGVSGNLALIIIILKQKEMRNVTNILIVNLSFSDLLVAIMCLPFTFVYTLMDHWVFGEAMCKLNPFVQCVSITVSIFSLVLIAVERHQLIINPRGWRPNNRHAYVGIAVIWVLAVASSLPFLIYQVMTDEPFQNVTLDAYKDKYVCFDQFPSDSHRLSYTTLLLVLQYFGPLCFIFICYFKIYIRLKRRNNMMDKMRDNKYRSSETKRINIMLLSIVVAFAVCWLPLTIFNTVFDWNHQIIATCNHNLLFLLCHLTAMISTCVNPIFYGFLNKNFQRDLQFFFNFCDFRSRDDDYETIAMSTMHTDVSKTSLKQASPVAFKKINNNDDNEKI
# [4] = target: T3, RNA-binding protein pos-1 (Caenorhabditis elegans, UniProt G5EF15); experiment: disruptors of C. elegans POS-1 RNA interaction – biochemical, fluorescence polarization, dose response (AID 1964);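 further: purified POS-1 fused to maltose binding protein made in E. coli; potency of compounds blocking POS-1 binding to fluorescent RNA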
# T3 sequence (G5EF15 whole entry): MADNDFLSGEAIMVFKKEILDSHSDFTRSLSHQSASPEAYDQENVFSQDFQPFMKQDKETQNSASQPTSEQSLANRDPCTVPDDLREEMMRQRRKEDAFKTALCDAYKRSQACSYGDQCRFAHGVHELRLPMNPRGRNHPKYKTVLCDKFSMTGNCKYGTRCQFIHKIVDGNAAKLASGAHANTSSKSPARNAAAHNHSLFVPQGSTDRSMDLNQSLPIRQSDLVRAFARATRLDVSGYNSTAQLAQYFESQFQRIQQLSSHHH
# [5] = target: T4, Nuclear receptor subfamily 0 group B member 1 (Homo sapiens, UniProt P51843); experiment: Luminescence-based cell-based high throughput dose response assay for inhibitors of the orphan nuclear receptor subfamily 0, group B, member 1 (DAX1; NR0B1). [Related pubchem assays (depositor defined):AID504766, AID504790]; assay type: functional
# T4 sequence (P51843 whole entry): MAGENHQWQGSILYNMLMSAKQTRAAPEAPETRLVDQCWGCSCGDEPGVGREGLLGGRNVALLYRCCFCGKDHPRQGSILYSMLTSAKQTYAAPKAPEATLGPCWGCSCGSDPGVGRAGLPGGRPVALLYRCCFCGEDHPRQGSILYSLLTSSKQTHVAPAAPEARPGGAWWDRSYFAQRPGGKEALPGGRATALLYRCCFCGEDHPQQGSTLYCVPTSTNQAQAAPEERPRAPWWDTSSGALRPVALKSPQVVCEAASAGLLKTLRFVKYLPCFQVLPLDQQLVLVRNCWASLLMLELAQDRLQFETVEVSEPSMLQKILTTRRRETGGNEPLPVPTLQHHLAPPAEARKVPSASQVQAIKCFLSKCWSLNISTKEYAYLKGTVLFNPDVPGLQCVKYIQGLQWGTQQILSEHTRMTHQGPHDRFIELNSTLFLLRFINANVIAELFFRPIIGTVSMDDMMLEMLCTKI
# Insulin-degrading enzyme = target: T5, Insulin-degrading enzyme (Homo sapiens, UniProt P14735); experiment: Dose Response: Fluorescence polarization-based cell-based high throughput dose response assay for inhibitors of insulin-degrading enzyme (IDE). [Related pubchem assays: 434962 (Primary screen (IDE inhibitors in singlicate)), 449730 (Counterscreen (Cytotoxicity in triplicate)), 435028 (Confirmation (IDE inhibitors in triplicate)), 434984 (Summary …; assay type: functional
# T5 sequence (P14735 whole entry): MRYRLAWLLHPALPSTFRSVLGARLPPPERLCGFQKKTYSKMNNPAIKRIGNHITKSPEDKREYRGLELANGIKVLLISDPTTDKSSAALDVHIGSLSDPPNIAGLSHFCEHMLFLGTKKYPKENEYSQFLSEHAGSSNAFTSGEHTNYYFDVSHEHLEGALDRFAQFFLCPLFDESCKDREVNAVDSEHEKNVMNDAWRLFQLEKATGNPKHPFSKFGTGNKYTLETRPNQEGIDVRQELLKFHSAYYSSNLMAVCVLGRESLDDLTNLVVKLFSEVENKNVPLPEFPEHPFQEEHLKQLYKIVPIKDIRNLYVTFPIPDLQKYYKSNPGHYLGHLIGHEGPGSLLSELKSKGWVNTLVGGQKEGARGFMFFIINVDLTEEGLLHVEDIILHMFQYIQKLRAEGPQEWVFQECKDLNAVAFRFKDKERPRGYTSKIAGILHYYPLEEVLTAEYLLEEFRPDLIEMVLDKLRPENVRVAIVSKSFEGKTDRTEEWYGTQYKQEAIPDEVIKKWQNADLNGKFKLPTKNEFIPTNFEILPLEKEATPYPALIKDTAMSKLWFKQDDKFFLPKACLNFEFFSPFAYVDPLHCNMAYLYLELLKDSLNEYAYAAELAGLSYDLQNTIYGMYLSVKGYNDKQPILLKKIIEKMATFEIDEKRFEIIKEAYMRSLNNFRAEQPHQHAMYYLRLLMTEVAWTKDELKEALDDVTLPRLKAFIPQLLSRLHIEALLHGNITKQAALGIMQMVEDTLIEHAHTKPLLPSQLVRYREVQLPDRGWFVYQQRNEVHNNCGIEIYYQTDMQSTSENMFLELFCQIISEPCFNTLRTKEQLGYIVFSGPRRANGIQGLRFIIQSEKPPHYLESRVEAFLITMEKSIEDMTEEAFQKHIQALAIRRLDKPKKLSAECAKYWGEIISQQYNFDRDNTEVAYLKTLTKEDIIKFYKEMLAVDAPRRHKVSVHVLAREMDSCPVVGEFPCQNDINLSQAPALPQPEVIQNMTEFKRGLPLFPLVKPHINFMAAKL
# [6] = Counterscreen for IDE inhibitors: Luminescence-based cell-based high throughput dose response assay to identify compounds that are cytotoxic to HEK cells. [Related pubchem assays: 434962 (Primary screen (IDE inhibitors in singlicate)), 449730 (Counterscreen (Cytotoxicity in triplicate)), 435028 (Confirmation (IDE inhibitors in triplicate)) …; assay type: functional; settings: HEK293
# [7] = mitochondrial function rescue without frataxin homolog – Friedreich's ataxia, plus single-dose screen, dose response (AID 1465); assay type: functional;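 further: yeast depleted of Yfh1p frataxin homolog grown on glycerol needing respiration; WST-1 tetrazolium dye reduction as measure of cellular dehydrogenase metabolic activity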
# HEK293 [8] = experiment: cells; assay type: functional, cell-based; settings: Homo sapiens
Compound,EC50 [1],EC50 (HEK293 [2]),EC50 [3],EC50 [4],IC50 [5],IC50 (Insulin-degrading enzyme),IC50 [6],EC50 [7],IC50 (HEK293 [8])
COC(=O)/C(=C/c1cn(C(C)=O)c2ccccc12)[N+](=O)[O-],> 35.4 µM (not active),12.3 µM (not active),> 35.4 µM (not active),–,–,–,–,–,–
CCN(CC)c1ccc(/C=C2\C(=O)NC(=S)N(C)C2=O)o1,–,–,–,> 300 µM (inconclusive),> 67.6 µM (inactive),14 µM (not active),> 55.7 µM (not active),> 100 µM (active),> 67.6 µM (inactive)
